Measured values: the supplement of paper PMC10307832

Experiments:
Test in all cases: relative viability (nuclei count vs DMSO), 5 days (fraction); higher = more cells survive
[1] = compound: Cn1c(=O)n(-c2ccc(C(C)(C)C#N)cc2)c2c3cc(-c4cnc5ccccc5c4)ccc3ncc21 [Dactolisib] + CCNC(=O)c1noc(-c2cc(C(C)C)c(O)cc2O)c1-c1ccc(CN2CCOCC2)cc1 [Luminespib] (partner 0.01 µM)
Method in brief: (§1)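 Lung cancer cell lines in 1536-well plates got either a single drug or a fixed anchor-drug dose together with five library-drug doses (not always all listed) in √10 steps, by pin tool, on the day after seeding. Nuclei were counted after 5 days, and relative viability is the treated-to-vehicle ratio of nuclei counts. Values are medians of duplicate plates.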

[2] = compound: Cn1c(=O)n(-c2ccc(C(C)(C)C#N)cc2)c2c3cc(-c4cnc5ccccc5c4)ccc3ncc21 [Dactolisib] + COc1cc2c(Oc3ccc(NC(=O)C4(C(=O)Nc5ccc(F)cc5)CC4)cc3F)ccnc2cc1OCCCN1CCOCC1 [Foretinib] (partner 0.25 µM)
Method in brief: as §1

[3] = compound: Cn1c(=O)n(-c2ccc(C(C)(C)C#N)cc2)c2c3cc(-c4cnc5ccccc5c4)ccc3ncc21 [Dactolisib] + CS(=O)(=O)N1CCN(Cc2cc3nc(-c4cccc5[nH]ncc45)nc(N4CCOCC4)c3s2)CC1 [Pictilisib] (partner 1 µM)
Method in brief: as §1

[4] = compound: Cn1c(=O)n(-c2ccc(C(C)(C)C#N)cc2)c2c3cc(-c4cnc5ccccc5c4)ccc3ncc21 [Dactolisib] + C[C@]1(O)C[C@@H](c2nc(-c3ccc4ccc(-c5ccccc5)nc4c3)c3c(N)nccn32)C1 [Linsitinib] (partner 1 µM)
Method in brief: as §1

UMC-11
relative viability ([1]; first compound 0.002 µM): 1.1
relative viability ([1]; first compound 0.006325 µM): 0.781
relative viability ([1]; first compound 0.02 µM): 0.737
relative viability ([1]; first compound 0.06325 µM): 0.261
relative viability ([1]; first compound 0.2 µM): 0.224
relative viability ([2]; first compound 0.002 µM): 1.04
relative viability ([2]; first compound 0.006325 µM): 0.882
relative viability ([2]; first compound 0.02 µM): 0.671
relative viability ([2]; first compound 0.06325 µM): 0.273
relative viability ([2]; first compound 0.2 µM): 0.242
relative viability ([3]; first compound 0.002 µM): 0.753
relative viability ([3]; first compound 0.006325 µM): 0.727
relative viability ([3]; first compound 0.02 µM): 0.606
relative viability ([3]; first compound 0.06325 µM): 0.285
relative viability ([3]; first compound 0.2 µM): 0.203
relative viability ([4]; first compound 0.002 µM): 1.02
relative viability ([4]; first compound 0.006325 µM): 0.987
relative viability ([4]; first compound 0.02 µM): 0.671
relative viability ([4]; first compound 0.06325 µM): 0.286
relative viability ([4]; first compound 0.2 µM): 0.262
